{"source": "patent US5945105A", "about": "“Peptides of the antigen Sm-D and their use, in particular for the diagnostics of systemic lupus erythematosus (SLE)” (Imtec Immundiagnostika GmbH, priority 1995, dated 1999)", "origin": "cited, not measured here", "tested_on": "anti-SmD antibody-positive sera / SLE sera", "conditions": "cited from earlier work; for anti-SmD antibody-positive sera that reacted with the peptide: 18 anti-SmD antibody-positive sera (immuno blotting); for positive reactions in the ELISA, SLE sera: 165 SLE sera", "data": [{"substance": "97-119: third region of the SmD protein, amino acids 97 through 119 (Barakat et al.) (GRGRGRGRGRGRGRGRGRGGPRR; UniProt P62314 97-119, looked up, fragment) [Peptide 97-119]", "values": [{"measurement": "anti-SmD antibody-positive sera that reacted with the peptide", "value": 33, "unit": "%"}, {"measurement": "positive reactions in the ELISA, SLE sera", "value": 1, "unit": "%"}]}, {"substance": "1-20: first region of the SmD protein, amino acids 1 through 20 (Barakat et al.) (MKLVRFLMKLSHETVTIELK; UniProt P62314 1-20, looked up, fragment) [Peptide 1-20]", "values": [{"measurement": "anti-SmD antibody-positive sera that reacted with the peptide", "value": 67, "unit": "%"}, {"measurement": "positive reactions in the ELISA, SLE sera", "value": 59, "unit": "%"}]}, {"substance": "44-67: second region of the SmD protein, amino acids 44 through 67 (Barakat et al.) (KMTLKNREPVQLETLSIRGNNIRY; UniProt P62314 44-67, looked up, fragment) [Peptide 44-67]", "values": [{"measurement": "anti-SmD antibody-positive sera that reacted with the peptide", "value": 89, "unit": "%"}, {"measurement": "positive reactions in the ELISA, SLE sera", "value": 37, "unit": "%"}]}]}
